Literature values as cited in US20130251663A1, “Tissue Preservation Fluid” (GREENBLENDZ, INC., priority 2012, published 2013).

Test system: eyes nose and throat
Details: airborne exposure

C=O [formaldehyde]
Airborne concentration immediately dangerous to life and health: 100 ppm
Airborne concentration that can cause irritation of the eyes nose and throat: above 0.1 ppm
